The test system of test [1] is MV4-11 (expressing FLT3/ITD mutant gene). The test is described as follows: Cell proliferation, Cell Titer-Glo, MV4-11. It counts as cell-based. As to conditions: Homo sapiens, MV4-11; incubated for 72 hours; read-out: MV4-11 IC50. The essentials: (§1)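 Read-out: luminescence from ATP in live cells (CellTiter-Glo), taken as viable cell number. Cell lines were built in-house.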

Test [2] deals with MOLM-13 (expressing FLT3/ITD mutant gene and wild-type FLT3 gene). The test is described as follows: Cell proliferation, Cell Titer-Glo, MOLM-13. It is filed as cell-based. As to conditions: Homo sapiens, MOLM-13; incubated for 72 hours; read-out: MOLM-13 IC50. The essentials: as §1
For test [3], the system named is MOLM-14 (expressing FLT3/ITD mutant gene and wild-type FLT3 gene). The test is described as follows: Cell proliferation, Cell Titer-Glo, MOLM-14. It counts as cell-based. Particulars: Homo sapiens, MOLM-14; incubated for 72 hours; read-out: MOLM-14 IC50. In outline: as §1
Test [4] relates to TEL-BaF3-FLT3/ITD (stably expressing FLT3/ITD mutant activated kinase). The test can be described thus: Cell proliferation, Cell Titer-Glo, TEL-BaF3-FLT3/ITD. It is filed as cell-based, mouse. As to conditions: Mus musculus, 72 h. The essentials:
(§2)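 Chemiluminescent ATP detection (CellTiter-Glo) gave the number of viable cells, used as the measure of proliferation in these laboratory-made BaF3 lines.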

The test system of test [5] is TEL-BaF3-FLT3-D835Y (stably expressing FLT3 D835Y mutant activated kinase). The test can be described thus: Cell proliferation, Cell Titer-Glo, TEL-BaF3-FLT3-D835Y. It counts as cell-based. Particulars: Mus musculus; incubated for 72 hours; read-out: TEL-BaF3-FLT3-D835Y IC50. The protocol: (§3) The above cell lines were constructed by our laboratory.
(§4) The number of viable cells was determined by quantification of ATP in living cells using the Cell Titer-Glo® (Promega, USA) chemiluminescence cell viability assay kit.

In test [6] the test system is BaF3-FLT3-ITD-D835Y (stably expressing FLT3/ITD D835Y mutant activated kinase). The test is described as follows: Cell proliferation, Cell Titer-Glo, BaF3-FLT3-ITD-D835Y. It counts as cell-based. Particulars: Mus musculus; incubated for 72 hours; read-out: BaF3-FLT3-ITD-D835Y IC50. On the procedure:
as §3, §4

Test [7] deals with BaF3-FLT3-ITD-F691L (stably expressing FLT3/ITD F691L mutant activated kinase). The test is described as follows: Cell proliferation, Cell Titer-Glo, BaF3-FLT3-ITD-F691L. As to conditions: Mus musculus; incubated for 72 hours; read-out: BaF3-FLT3-ITD-F691L IC50. It is filed as cell-based. The protocol:
as §3, §4

In test [8] the test system is pro-B cell BaF3. The test can be described thus: Cell proliferation, Cell Titer-Glo, BaF3. It is filed as cell-based. Particulars: Mus musculus, incubated for 72 hours. In outline:
as §1

The test system of test [9] is U937 (expressing wild-type FLT3 gene). The test can be described thus: Cell proliferation, Cell Titer-Glo, U937. It is filed as cell-based, human. As to conditions: Homo sapiens, U-937, 72 h, incubated for 72 hours; read-out: U937 IC50. The essentials: as §1
Test [10] deals with TEL-BaF3-BMX (stably expressing BMX kinase). The test is described as follows: Cell proliferation, Cell Titer-Glo, TEL-BaF3-BMX. It counts as cell-based. As to conditions: Mus musculus; incubated for 72 hours. In outline: as §2
Test [11] relates to TEL-cKIT-BaF3 (stably expressing cKIT kinase). The test is described as follows: Cell proliferation, Cell Titer-Glo, TEL-cKIT-BaF3. It is filed as cell-based. Particulars: Mus musculus; incubated for 72 hours. In outline: as §2
The subject of test [12] is TPR-MET-BaF3 (stably expressing MET kinase). The test can be described thus: Cell proliferation, Cell Titer-Glo, TPR-MET-BaF3. It is filed as cell-based. As to conditions: Mus musculus; incubated for 72 hours. In outline: as §2
Test [13] concerns TEL-BaF3-EGFR (stably expressing EGFR kinase). The test can be described thus: Cell proliferation, Cell Titer-Glo, TEL-BaF3-EGFR. It counts as cell-based. Particulars: Mus musculus; incubated for 72 hours. On the procedure: as §3, §4
In test [14] the test system is TEL-BaF3-BLK (stably expressing BLK kinase). The test is described as follows: Cell proliferation, Cell Titer-Glo, TEL-BaF3-BLK. Particulars: Mus musculus; incubated for 72 hours. It is filed as cell-based. The essentials: as §2
In test [15] the test system is TEL-JAK1-BaF3 (stably expressing JAK1 kinase). The test is described as follows: Cell proliferation, Cell Titer-Glo, TEL-JAK1-BaF3. It is filed as cell-based. As to conditions: Mus musculus; incubated for 72 hours. The protocol: as §3, §4
The target in test [16] is BTK protein kinase (Homo sapiens (Human), UniProt Q06187). The test is described as follows: In vitro inhibition activity (enzymatic activity), ADP-Glo, BTK. It is filed as biochemical. As to conditions: ATP 10 μM.
The subject of test [17] is TEL-FLT3-BaF3 (stably expressing FLT3 kinase). The test is described as follows: Cell proliferation, Cell Titer-Glo, TEL-FLT3-BaF3. It is filed as cell-based. Particulars: Mus musculus; incubated for 72 hours; read-out: TEL-FLT3-BaF3 IC50. The protocol: as §3, §4
The mark [18] stands for this setting: incubated for 72 hours, read-out: TEL-BaF3-FLT3/ITD IC50.

Among the data in patent US10266535B2, “Inhibitor of FLT3 kinase and use thereof” (HEFEI INSTITUTES OF PHYSICAL SCIENCE, CHINESE ACADEMY OF …, priority 2015, dated 2019) are IC50 values, retold here.

Counter-ions that a name gives are not always drawn. Like-named read-outs stand apart in the source and are kept apart here. A value given as a limit tells only on which side of the number the result lay.

Sequence of BTK protein kinase (Q06187 whole entry): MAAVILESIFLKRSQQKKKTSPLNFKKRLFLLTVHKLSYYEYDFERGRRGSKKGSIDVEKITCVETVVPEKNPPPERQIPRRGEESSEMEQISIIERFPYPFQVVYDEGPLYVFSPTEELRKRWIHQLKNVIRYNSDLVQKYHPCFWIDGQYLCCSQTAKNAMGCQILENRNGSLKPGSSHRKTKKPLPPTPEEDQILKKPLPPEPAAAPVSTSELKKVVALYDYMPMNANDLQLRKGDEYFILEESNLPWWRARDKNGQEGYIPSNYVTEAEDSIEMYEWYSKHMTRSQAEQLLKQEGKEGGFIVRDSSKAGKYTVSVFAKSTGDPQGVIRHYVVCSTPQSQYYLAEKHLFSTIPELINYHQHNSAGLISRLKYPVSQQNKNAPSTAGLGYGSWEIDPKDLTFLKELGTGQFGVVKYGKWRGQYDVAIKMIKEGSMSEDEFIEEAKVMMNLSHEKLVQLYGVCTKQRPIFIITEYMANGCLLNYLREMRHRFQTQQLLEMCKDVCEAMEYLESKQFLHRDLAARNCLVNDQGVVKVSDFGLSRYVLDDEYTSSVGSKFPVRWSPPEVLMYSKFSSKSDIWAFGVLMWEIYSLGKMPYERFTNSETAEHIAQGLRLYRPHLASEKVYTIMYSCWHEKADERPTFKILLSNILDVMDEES

For the compound `Nc1ncnc2c1c(-c1ccc(Oc3ccccc3)cc1)nn2[C@@H]1CCCN(C(=O)N2CCNCC2)C1` [Compound 14, (R)-(3-(4-amino-(4-phenoxyphenyl)-1H-pyrazolo[3,4-d]pyrimidin-1-yl)piperidin-1-yl)(piperazin-1-yl)methanone], the IC50 turned out to be 0.049 µM in [1]; 0.06 µM in test [2]; 0.12 µM in test [3]; 0.088 µM in test [4] (setting [18]); 0.24 µM in test [5]; 0.25 µM in [6]. For the same compound, the IC50 was determined as 0.37 µM in test [7]; 9.8 µM in test [8]; 4.14 µM in test [9]; 0.43 µM in [10]; 4.9 µM in test [11]; 3 µM in test [12]. Further, the IC50 in test [13] came to 1.6 µM; in test [14], 1 µM; in [15], 7.7 µM; in test [16], 0.063 µM.
With `Nc1ncnc2c1c(-c1ccc(Oc3ccccc3)cc1)nn2[C@@H]1CCCN(C(=O)[C@@H](N)Cc2ccc(O)cc2)C1` [Compound 11, (S)-2-amino-1-((R)-3-(4-amino-(4-phenoxyphenyl)-1H-pyrazolo[3,4-d]pyrimidin-1-yl)piperidin-1-yl)-3-(4-hydroxyphenyl)propan-1-one], the IC50 is 0.022 µM in test [1]; 0.012 µM in [2]; 0.046 µM in test [3]; 0.048 µM in test [4] (setting [18]); 0.02 µM in [5]; 0.28 µM in test [6]. For the same compound, the IC50 stood at 0.26 µM in [7]; 0.96 µM in [8]; 3.4 µM in test [9]; 0.44 µM in test [10]; 0.83 µM in test [11]; 1.4 µM in [12]. In addition, the IC50 in test [13] came out at 2.2 µM; in test [14] it was 0.09 µM; in [15], 0.34 µM.
For the compound `CC(C)[C@@H](N)C(=O)NC1CCC(n2nc(-c3ccc(Oc4ccccc4)cc3)c3c(N)ncnc32)CC1` (stereo partly drawn) [Compound 86, (R)-2-amino-N-(4-(4-amino-(4-phenoxyphenyl)-1H-pyrazolo[3,4-d]pyrimidin-1-yl)cyclohexyl)-3-methylbutanamide hydrochloride], the IC50 in [1] was 0.02 µM; in test [2], 0.001 µM; in [3], 0.005 µM; in test [17] it was 0.004 µM; in test [6], 0.006 µM; in test [7], 0.15 µM. In addition, the IC50 in [9] is 1.4 µM; in test [10] it was under 0.0003 µM; in test [11], 0.27 µM; in test [12], 3.3 µM; in test [13] it was 1.3 µM; in test [14], 0.001 µM.
In the case of `Nc1ncnc2c1c(-c1ccc(Oc3ccccc3)cc1)nn2[C@@H]1CCCN(C(=O)[C@H](N)Cc2c[nH]cn2)C1` [Compound 7, (R)-2-amino-1-((R)-3-(4-amino-(4-phenoxyphenyl)-1H-pyrazolo[3,4-d]pyrimidin-1-yl)piperidin-1-yl)-3-(1H-imidazol-4-yl)propan-1-one], the IC50 in test [1] amounted to 0.01 µM; in [2] it was 0.0012 µM; in [3], 0.023 µM; in test [4] (setting [18]), 0.009 µM; in test [5], 0.3 µM; in test [6] it was 0.11 µM. The IC50 in [7] stood at 0.25 µM; in test [8], 0.44 µM; in [9], 0.54 µM; in test [10], 0.33 µM; in test [11] it was 0.35 µM; in test [12], 0.53 µM. In addition, the IC50 in [13] is 1 µM; in [14] it was 0.051 µM; in test [15], 0.37 µM; in test [16] it was 0.027 µM.
Consider `CN(C)CC(=O)NC1CCC(n2nc(-c3ccc(Oc4ccccc4)cc3)c3c(N)ncnc32)CC1` (centres unmarked) [Compound 76, N-(4-(4-amino-3-(4-phenoxyphenyl)-1H-pyrazolo[3,4-d]pyrimidin-1-yl)cyclohexyl)-2-(dimethylamino)acetamide], for which the IC50 in test [1] is 0.027 µM; in [3], 0.036 µM; in [4] (read-out: TEL-BaF3-FLT3/ITD IC50 [μM]), 0.0067 µM; in test [17] it was 0.042 µM; in test [5], 0.023 µM; in [6], 0.13 µM. In addition, the IC50 in test [7] is 0.18 µM; in test [8], 4.2 µM; in test [9], over 10 µM; in test [10] it was 0.12 µM; in [11], 0.43 µM; in [14] it was 0.03 µM. In test [16], this compound returned an IC50 of 0.388 µM.
Take `NC(=O)C(=O)N1CCC[C@@H](n2nc(-c3ccc(Oc4ccccc4)cc3)c3c(N)ncnc32)C1` [Compound 5, (R)-2-(3-(4-amino-(4-phenoxyphenyl)-1H-pyrazolo[3,4-d]pyrimidin-1-yl)piperidin-1-yl)-2-oxamide]: the IC50 in test [1] is 0.12 µM; in [2], 0.085 µM; in [3] it was 0.21 µM; in test [4] (setting [18]) it was 0.51 µM; in test [5], 0.034 µM; in test [6] it was 0.32 µM. In addition, the IC50 in [7] is 0.37 µM; in test [8] it was over 10 µM; in test [9], 6.4 µM; in test [10], 0.2 µM; in test [11], 2.2 µM; in test [12], 5.7 µM. The IC50 in test [13] is over 10 µM; in test [14], 0.97 µM; in test [15] it was 4 µM; in test [16], 0.04 µM.
`CC(C)C[C@@H](N)C(=O)N1CCC[C@@H](n2nc(-c3ccc(Oc4ccccc4)cc3)c3c(N)ncnc32)C1` [Compound 27, (R)-2-amino-1-((R)-3-(4-amino-(4-phenoxyphenyl)-1H-pyrazolo[3,4-d]pyrimidin-1-yl)piperidin-1-yl)-4-methylpentan-1-one]: the IC50 came out at 0.032 µM in test [1]; 0.014 µM in test [2]; 0.023 µM in [3]; 0.005 µM in test [4] (setting [18]); 0.018 µM in [5]; 0.2 µM in test [6]. The IC50 in [7] was 0.28 µM; in test [8], 1.3 µM; in test [9], 4.1 µM; in [10], 0.34 µM; in test [11] it was 1.6 µM; in test [12], 1.5 µM. Moreover, the IC50 in test [13] was 0.99 µM; in test [14] it was 0.21 µM; in test [15] it was 2.2 µM; in test [16], 0.688 µM.
